Measurements reported in EP4273147A1, “SUBSTITUTED SPIROLACTAMS, SALTS THEREOF AND THEIR USE AS HERBICIDALLY ACTIVE SUBSTANCES” (Bayer Aktiengesellschaft, priority 2022, dated 2023).

Assays:
STEME = experiment: Herbicidal pre-emergence action (Table A6); assay type: in vivo, Stellaria media; conditions: visual grading after ca. 3 weeks
Text: (§1) Seeds of mono- and dicotyledonous weed plants were sown in plastic pots (double sowings with one species of mono- and one species of dicotyledonous weed plants per pot), in sandy loam, and covered with soil.

KCHSC = experiment: Herbicidal pre-emergence action (Table A10); assay type: in vivo, Kochia scoparia; conditions: visual grading after ca. 3 weeks
Text: as §1

SETVI = experiment: Herbicidal pre-emergence action (Table A5); assay type: in vivo, Setaria viridis; conditions: visual grading after ca. 3 weeks
Text: as §1

LOLRI = experiment: Herbicidal pre-emergence action (Table A3); assay type: in vivo, Lolium rigidum; conditions: application rate 1280 g/ha; visual grading after ca. 3 weeks
Text: as §1

ECHCG [1] = experiment: Herbicidal pre-emergence action (Table A2); assay type: in vivo, Echinochloa crus-galli; conditions: visual grading after ca. 3 weeks
Text: as §1

POAAN [2] = experiment: Herbicidal pre-emergence action (Table A7); assay type: in vivo, Poa annua; conditions: visual grading after ca. 3 weeks
Text: as §1

DIGSA = experiment: Herbicidal pre-emergence action (Table A12); assay type: in vivo, Digitaria sanguinalis; conditions: visual grading after ca. 3 weeks
Text: as §1

MATIN = experiment: Herbicidal pre-emergence action (Table A4); assay type: in vivo, Matricaria inodora; conditions: visual grading after ca. 3 weeks
Text: as §1

POAAN [3] = experiment: Herbicidal post-emergence action (Table B7); assay type: in vivo, Poa annua
Procedure: (§2) Seeds of mono- and dicotyledonous weed plants were placed in plastic pots in sandy loam soil (doubly sown with in each case one species of mono- or dicotyledonous weed plants per pot), covered with soil and cultivated in a greenhouse under controlled growth conditions. 2 to 3 weeks after sowing, the test plants were treated at the one-leaf stage. […] After the test plants had been kept in the greenhouse under optimum growth conditions for about 3 weeks, the activity of the preparations was rated visually in comparison to untreated controls. For example, 100% activity = the plants have died, 0% activity = like control plants.

ECHCG [4] = experiment: Herbicidal post-emergence action (Table B3); assay type: in vivo, Echinochloa crus-galli; conditions: application rate 1280 g/ha; rated visually after about 3 weeks
Procedure: as §2

With `Cc1ccccc1CN1CCC2(CCCN(Cc3cccc(F)c3F)C2=O)C1=O` (racemic) [I-080] the “pre-emergence activity against STEME” value (STEME; application rate 1280 g/ha) was 90%, the “pre-emergence activity against KCHSC” value (KCHSC; application rate 1280 g/ha) was 100% and the “pre-emergence activity against SETVI” value (SETVI; application rate 1280 g/ha) was 100%. The “pre-emergence activity against LOLRI” value (LOLRI) was 90%, the “pre-emergence activity against ECHCG” value (ECHCG [1]; application rate 1280 g/ha) was 100% and the “pre-emergence activity against POAAN” value (POAAN [2]; application rate 320 g/ha) was 100%. The “pre-emergence activity against DIGSA” value (DIGSA; application rate 1280 g/ha) was 100%.

For `Cc1ccccc1CN1CCCC2(CCN(Cc3cccc(F)c3F)C2=O)C1=O` (racemic) [I-081], the “pre-emergence activity against STEME” value (STEME; application rate 1280 g/ha) was 90%, the “pre-emergence activity against SETVI” value (SETVI; application rate 1280 g/ha) was 100% and the “pre-emergence activity against MATIN” value (MATIN; application rate 1280 g/ha) was 90%. The “pre-emergence activity against LOLRI” value (LOLRI) was 90%, the “pre-emergence activity against POAAN” value (POAAN [2]; application rate 320 g/ha) was 100% and the “pre-emergence activity against DIGSA” value (DIGSA; application rate 320 g/ha) was 90%.

With `N#Cc1ccccc1CN1CCCC2(CCCN(Cc3ccccc3C#N)C2=O)C1=O` (racemic) [I-094] the “pre-emergence activity against SETVI” value (SETVI; application rate 1280 g/ha) was 90% and the “pre-emergence activity against POAAN” value (POAAN [2]; application rate 1280 g/ha) was 100%.

`O=C1N(Cc2c(F)ccc(F)c2Cl)CCCC12CCCN(Cc1c(F)ccc(F)c1Cl)C2=O` (racemic) [I-078] was tested, and the “pre-emergence activity against STEME” value (STEME; application rate 320 g/ha) was 90% and the “pre-emergence activity against POAAN” value (POAAN [2]; application rate 1280 g/ha) was 100%.

For `Cc1ccccc1CN1CCCC2(CCCN(Cc3cccs3)C2=O)C1=O` (racemic) [I-043], the “pre-emergence activity against STEME” value (STEME; application rate 1280 g/ha) was 90%, the “post-emergence activity against POAAN” value (POAAN [3]; application rate 320 g/ha) was 90% and the “post-emergence activity against ECHCG” value (ECHCG [4]) was 90%. For the same compound, the “pre-emergence activity against SETVI” value (SETVI; application rate 1280 g/ha) was 100%, the “pre-emergence activity against ECHCG” value (ECHCG [1]; application rate 320 g/ha) was 100% and the “pre-emergence activity against POAAN” value (POAAN [2]; application rate 320 g/ha) was 100%.

In the case of `Cc1ccccc1CN1CCCC2(CCN(Cc3ccccc3F)C2=O)C1=O` (racemic) [I-086], the “pre-emergence activity against SETVI” value (SETVI; application rate 1280 g/ha) is reported as 90%, the “pre-emergence activity against ECHCG” value (ECHCG [1]; application rate 1280 g/ha) is reported as 100% and the “pre-emergence activity against POAAN” value (POAAN [2]; application rate 1280 g/ha) is reported as 100%. For the same compound, the “pre-emergence activity against DIGSA” value (DIGSA; application rate 1280 g/ha) was 100%.

With `O=C1N(Cc2ccsc2)CCCC12CCCN(Cc1ccccc1F)C2=O` (racemic) [I-104] the “pre-emergence activity against SETVI” value (SETVI; application rate 320 g/ha) was 90%, the “pre-emergence activity against MATIN” value (MATIN; application rate 320 g/ha) was 90% and the “pre-emergence activity against ECHCG” value (ECHCG [1]; application rate 320 g/ha) was 90%. The “pre-emergence activity against POAAN” value (POAAN [2]; application rate 320 g/ha) was 100%.

For `Cc1ccccc1CN1CCC2(CCCN(Cc3ccccc3F)C2=O)C1=O` (racemic) [I-088], the “pre-emergence activity against STEME” value (STEME; application rate 1280 g/ha) was 90%, the “pre-emergence activity against KCHSC” value (KCHSC; application rate 320 g/ha) was 90% and the “pre-emergence activity against SETVI” value (SETVI; application rate 1280 g/ha) was 90%. For the same compound, the “pre-emergence activity against LOLRI” value (LOLRI) was 100%, the “pre-emergence activity against POAAN” value (POAAN [2]; application rate 320 g/ha) was 100% and the “pre-emergence activity against DIGSA” value (DIGSA; application rate 320 g/ha) was 90%.

`O=C1N(Cc2c(F)cccc2C(F)(F)F)CCCC12CCCN(Cc1c(F)cccc1C(F)(F)F)C2=O` (racemic) [I-041] was tested, and the “pre-emergence activity against STEME” value (STEME; application rate 320 g/ha) was 100% and the “pre-emergence activity against POAAN” value (POAAN [2]; application rate 1280 g/ha) was 90%.

With `COc1ccccc1CN1CCCC2(CCCN(c3ccccc3)C2=O)C1=O` (racemic) [I-102] the “pre-emergence activity against STEME” value (STEME; application rate 1280 g/ha) was 90%, the “pre-emergence activity against SETVI” value (SETVI; application rate 1280 g/ha) was 90% and the “pre-emergence activity against ECHCG” value (ECHCG [1]; application rate 1280 g/ha) was 90%. The “pre-emergence activity against POAAN” value (POAAN [2]; application rate 1280 g/ha) was 90%.

With `O=C1N(Cc2ccccc2)CCCC12CCN(Cc1ccccc1F)C2=O` (racemic) [I-059] the “pre-emergence activity against STEME” value (STEME; application rate 1280 g/ha) was 90%, the “post-emergence activity against POAAN” value (POAAN [3]; application rate 1280 g/ha) was 90% and the “pre-emergence activity against KCHSC” value (KCHSC; application rate 1280 g/ha) was 90%. The “post-emergence activity against ECHCG” value (ECHCG [4]) was 90%, the “pre-emergence activity against SETVI” value (SETVI; application rate 320 g/ha) was 100% and the “pre-emergence activity against MATIN” value (MATIN; application rate 1280 g/ha) was 90%. For the same compound, the “pre-emergence activity against LOLRI” value (LOLRI) was 100%, the “pre-emergence activity against ECHCG” value (ECHCG [1]; application rate 320 g/ha) was 100% and the “pre-emergence activity against POAAN” value (POAAN [2]; application rate 320 g/ha) was 100%. For the same compound, the “pre-emergence activity against DIGSA” value (DIGSA; application rate 320 g/ha) was 90%.

`O=C1N(Cc2ccccc2Br)CCCC12CCCN(Cc1ccccc1Br)C2=O` (racemic) [I-064] was tested, and the “post-emergence activity against POAAN” value (POAAN [3]; application rate 1280 g/ha) was 100%, the “pre-emergence activity against SETVI” value (SETVI; application rate 1280 g/ha) was 90% and the “pre-emergence activity against ECHCG” value (ECHCG [1]; application rate 1280 g/ha) was 90%. The “pre-emergence activity against POAAN” value (POAAN [2]; application rate 1280 g/ha) was 100%.

Compound `O=C1N(Cc2ccsc2Br)CCCC12CCCN(Cc1ccsc1Br)C2=O` (racemic) [I-216, 2,8-bis[(2-bromothien-3-yl)methyl]-2,8-diazaspiro[5.5]undecane-1,7-dione] has a pest or weed control at 1280 g/ha (POAAN [2]; Poa annua, pre-emergence, 504 h, application rate 1280 g/ha, read-out: pre-emergence activity against POAAN) of 90%.
